This is an account of results in patent US20100184815A1 (priority 2008, published 2010).

For one data set, the target named is T1, Gal-4 hPPARβ/δ (Homo sapiens, UniProt Q03181).
T1 construct: Plasmids pGal4-hPPARα, pGal4-hPPARγ, pGal4-hPPARδ and pG5-TK-pGL3 were constructed as previously described by Staels, Bart, et al., Nature 1998 Jun; 25
T1 sequence (Q03181 171-441 limits assumed): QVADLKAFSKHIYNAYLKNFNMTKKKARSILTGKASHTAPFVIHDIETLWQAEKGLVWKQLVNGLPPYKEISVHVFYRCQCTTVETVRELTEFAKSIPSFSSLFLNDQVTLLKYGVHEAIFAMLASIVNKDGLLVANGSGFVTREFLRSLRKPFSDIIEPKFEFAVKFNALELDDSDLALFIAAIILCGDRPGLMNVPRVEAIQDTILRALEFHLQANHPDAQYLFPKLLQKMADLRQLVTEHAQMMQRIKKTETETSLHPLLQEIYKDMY
In words: Gal4-hPPARδ transient transfection reporter assay in Cos cells. The settings on record: luciferase reporter, 24 hours with compound, scale 1-5, read-out: Gal-4 hPPAR β/δ EC50 (scaled number). The class given is cell-based. The protocol: (§1) Construction of recombinant plasmids. Plasmids pGal4-hPPARα, pGal4-hPPARγ, pGal4-hPPARδ and pG5-TK-pGL3 were constructed as previously described by Staels, Bart, et al., Nature 1998 Jun. 25; 393 (6687): 790-793, by Staels (Institut Pasteur de Lille, FR).
(§2) Transient transfection assays. Cos cells were seeded in 60-mm dishes at a density of 5.5×10^5 cells/dish in Dulbecco's modified Eagle's medium (DMEM) supplemented with 10% fetal calf serum (FCS) and incubated at 37° C. for 24 hours before transfection. Cells were transfected in Opti-MEM (Gibco; Invitrogen, Carlsbad, Calif.) without FCS for 3 hours at 37° C., using polyethylenimine, with reporter and expression plasmids. The plasmid pBluescript (Stratagene, La Jolla, Calif.) was used as carrier DNA to set the final amount of DNA to 5.5 μg/dish. The pCMV-b-galactosidase expression plasmid was cotransfected as a control for transfection efficiency. Transfection was stopped by the addition of DMEM supplemented with 10% FCS, and cells were then incubated at 37° C. After 16 hours, cells were trypsinized and seeded in 96-well plates at the density of 2×10^4 cells/well and incubated for 6 hours in 10% FCS-containing DMEM. Cells were then incubated for 24 hours in DMEM containing 0.2% FCS and increasing concentrations of the compound tested or vehicle (DMSO). At the end of the experiment, cells were washed once with ice-cold PBS, lysed and the luciferase and b-galactosidase assays were performed in a luminometer and spectrophotomer. Transfection efficiencies were normalized with the b-galactosidase activity assay. Half-maximal effective concentration (EC50) was estimated using Prism software (GraphPad). All transfection experiments were performed at least three times.
(§3) In the following tables, proprietary compound EC50 values for hPPAR α, β, δ and γ are shown. The EC50 value is the concentration of a drug that induces a response halfway between the baseline and maximum, and is commonly used as a measure of drug potency. EC50 values are reported on a scale of 1 through 5, wherein the value scale is defined for each receptor as follows: […]

Another data set addresses T2, Gal-4 hPPARγ (Homo sapiens, UniProt P37231).
T2 construct: Plasmids pGal4-hPPARα, pGal4-hPPARγ, pGal4-hPPARδ and pG5-TK-pGL3 were constructed as previously described by Staels, Bart, et al., Nature 1998 Jun; 25
T2 sequence (P37231 238-505 limits assumed): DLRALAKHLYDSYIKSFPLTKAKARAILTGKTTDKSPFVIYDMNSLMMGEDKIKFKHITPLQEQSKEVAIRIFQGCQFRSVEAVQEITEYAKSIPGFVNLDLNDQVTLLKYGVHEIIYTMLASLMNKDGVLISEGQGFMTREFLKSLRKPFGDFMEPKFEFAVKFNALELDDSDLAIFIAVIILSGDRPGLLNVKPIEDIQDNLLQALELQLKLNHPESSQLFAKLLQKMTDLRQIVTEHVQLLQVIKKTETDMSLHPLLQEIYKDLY
Kind of data set: Gal4-hPPARγ transient transfection reporter assay in Cos cells. It counts as cell-based. The settings on record: luciferase reporter, 24 hours with compound, scale 1-5, read-out: Gal-4 hPPAR γ EC50 (scaled number). The protocol:
as §1, §2, §3
In general terms: A reporter such as luciferase makes a cellular process visible.

Another data set has as its target T3, Gal-4 hPPARα (Homo sapiens, UniProt Q07869).
T3 construct: Plasmids pGal4-hPPARα, pGal4-hPPARγ, pGal4-hPPARδ and pG5-TK-pGL3 were constructed as previously described by Staels, Bart, et al., Nature 1998 Jun; 25
T3 sequence (Q07869 200-468 limits assumed): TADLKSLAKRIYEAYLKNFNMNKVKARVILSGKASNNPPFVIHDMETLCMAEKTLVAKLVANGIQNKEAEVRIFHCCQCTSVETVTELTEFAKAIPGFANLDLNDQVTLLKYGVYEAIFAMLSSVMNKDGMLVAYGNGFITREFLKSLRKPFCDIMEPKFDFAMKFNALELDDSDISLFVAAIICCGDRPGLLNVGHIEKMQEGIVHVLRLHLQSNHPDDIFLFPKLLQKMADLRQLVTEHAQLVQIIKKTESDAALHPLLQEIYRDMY
In words: Gal4-hPPARα transient transfection reporter assay in Cos cells. It counts as cell-based. As to conditions: luciferase reporter, 24 hours with compound, scale 1-5, read-out: Gal-4 hPPAR α EC50 (scaled number). The protocol: as §1, §2, §3

The nature of data set [1]: Metabolism studies using human liver microsomal preparations. It counts as in vitro ADME. The protocol: Compounds were incubated in pooled human liver microsomes (HLMs) in the presence or absence of an NADPH-generating system. NADPH is required for the activity of cytochrome P450 (CYP) and other oxidative enzymes present in HLMs, but not for esterase activity. An additional incubation was carried out in the absence of HLM to assess compound stability. The disappearance of parent and the appearance of the corresponding acid metabolite were monitored over the time course of the incubations using LC-MS/MS.
A stock solution (20 mM) of each proprietary compound in DMSO was prepared and store at −20° C. until needed. A working stock solution (0.2 mM) was prepared for each proprietary compound by adding an aliquot of the stock solution (10 μL) to acetonitrile (990 μL).
An aliquot of the HLM solution was removed from the −80° C. freezer and placed on ice. Tris Buffer (50 mM, pH 7.4) containing MgCl2 (hexahydrate, 5 mM) was pre-incubated in a 37° C. water bath. A set of Eppendorf microfuge tubes (1.5 mL) was appropriately labeled. To each tube was added Tris buffer with or without the NADPH generating system. An aliquot of pooled HLMs was added to all the incubations except those that were the buffer control.
Tubes were preincubated for 5 min in a shaking incubator bath (37° C., 900 rpm) and the reaction was initiated by adding an aliquot of the proprietary working solution (5 μL). The additions were timed carefully in order to coordinate the sample collections below. A small aliquot (50 μL) was removed at […] and delivered to the respective tubes containing dextrorphan (100 μL of 0.5 μg/mL solution) in dissolved in methanol or acetonitrile. The samples were centrifuged at 14000 g for 15 minutes at 4° C. The supernatant was transferred to clean labeled HPLC injection vials and stored at −80° C. until analyzed. An aliquot of the supernatant […] was added to water (75 μL), mixed and injected onto the LC-MS/MS system for analysis.
“HLM t1/2” represents the observed half life of the compound under conditions that included NADPH, i.e., the CYP system was active. Comparison to the half life of the test article under (−)NADPH conditions, the enzyme predominant ly responsible for the metabolism of the test article. […] Where roughly equal metabolism is seen by each enzyme system, “mixed” is noted in the “Predominant enzyme” column.
On the technique in general: Liver microsomes are a subcellular fraction often used to study metabolism.

As to `CC(C)(Sc1ccc(C(=O)OCc2cnn(Cc3ccc(F)c(F)c3)c2)cc1)C(=O)O` [Compound 24, 2-(4-(((1-(3,4-difluorobenzyl)-1H-pyrazol-4-yl)methoxy)carbonyl)phenylthio)-2-methylpropanoic acid], the EC50 at Gal-4 hPPARβ/δ was over 1000 nM; at Gal-4 hPPARγ, over 1000 nM; on Gal-4 hPPARα, 51 to 200 nM.
Consider `CCn1c(COC(=O)c2ccc(OC(C)(C)C(=O)O)cc2)nn(Cc2ccc(C(C)(C)C)cc2)c1=O` [Compound 196, 2-(4-(((1-(4-tert-butylbenzyl)-4-ethyl-5-oxo-4,5-dihydro-1H-1,2,4-triazol-3-yl)methoxy)carbonyl)phenoxy)-2-methylpropanoic acid], for which the EC50 at Gal-4 hPPARβ/δ was over 1000 nM; on Gal-4 hPPARγ, over 1000 nM; on Gal-4 hPPARα, 51 to 200 nM.
Regarding `CCCCCCn1c(COC(=O)c2ccc(OC(C)(C)C(=O)O)cc2)nn(Cc2ccc(C(OC)(C(F)(F)F)C(F)(F)F)cc2)c1=O` [Compound 202, 2-(4-(((1-(4-(1,1,1,3,3,3-hexafluoro-2-methoxypropan-2-yl)benzyl)-4-hexyl-5-oxo-4,5-dihydro-1H-1,2,4-triazol-3-yl)methoxy)carbonyl)phenoxy)-2-methylpropanoic acid], the EC50 at Gal-4 hPPARβ/δ is over 1000 nM; at Gal-4 hPPARγ, over 1000 nM; on Gal-4 hPPARα it was 1 to 50 nM.
For `CCCn1c(COC(=O)c2ccc(OC(C)(C)C(=O)O)cc2)nn(Cc2cc(C(F)(F)F)cc(C(F)(F)F)c2)c1=O` [Compound 206, 2-(4-(((1-(3,5-bis(trifluoromethyl)benzyl)-5-oxo-4-propyl-4,5-dihydro-1H-1,2,4-triazol-3-yl)methoxy)carbonyl)phenoxy)-2-methylpropanoic acid], the EC50 on Gal-4 hPPARβ/δ is over 1000 nM; on Gal-4 hPPARγ, over 1000 nM; at Gal-4 hPPARα it was 201 to 999 nM.
Take `CCn1c(COC(=O)c2ccc(SC(C)(C)C(=O)O)cc2)nn(Cc2ccc(C(F)(F)F)cc2)c1=O` [Compound 197, 2-(4-(((4-ethyl-5-oxo-1-(4-(trifluoromethyl)benzyl)-4,5-dihydro-1H-1,2,4-triazol-3-yl)methoxy)carbonyl)phenylthio)-2-methylpropanoic acid]: the EC50 at Gal-4 hPPARβ/δ was over 1000 nM; at Gal-4 hPPARγ it was over 1000 nM; on Gal-4 hPPARα, 1 to 50 nM.
For `CCn1c(COC(=O)c2ccc(SC(C)(C)C(=O)O)cc2)nn(Cc2ccc(C)cc2)c1=O` [Compound 193, 2-(4-(((4-ethyl-1-(4-methylbenzyl)-5-oxo-4,5-dihydro-1H-1,2,4-triazol-3-yl)methoxy)carbonyl)phenylthio)-2-methylpropanoic acid], the figures for the EC50 on Gal-4 hPPARβ/δ, on Gal-4 hPPARγ and on Gal-4 hPPARα were over 1000 nM, over 1000 nM and 51 to 200 nM, respectively.
Regarding `COc1ccc(Cn2cc(COC(=O)c3ccc(SC(C)(C)C(=O)O)cc3)cn2)cc1` [Compound 8, 2-(4-(((1-(4-methoxybenzyl)-1H-pyrazol-4-yl)methoxy)carbonyl)phenylthio)-2-methylpropanoic acid], the EC50 at Gal-4 hPPARβ/δ was over 1000 nM; at Gal-4 hPPARγ, over 1000 nM; at Gal-4 hPPARα, 51 to 200 nM.
Turning to `CC(C)(Sc1ccc(C(=O)OCc2cnn(Cc3ccc(-c4ccccc4)cc3)c2)cc1)C(=O)O` [Compound 22, 2-(4-(((1-(biphenyl-4-ylmethyl)-1H-pyrazol-4-yl)methoxy)carbonyl)phenylthio)-2-methylpropanoic acid], the EC50 on Gal-4 hPPARβ/δ is over 1000 nM; on Gal-4 hPPARγ, over 1000 nM; on Gal-4 hPPARα it was 51 to 200 nM.
Consider `C[C@@H](Cc1cn(Cc2ccc(C(C)(C)C)cc2)nn1)OC(=O)c1ccc(SC(C)(C)C(=O)O)cc1` [Compound 133, 4-(1-Carboxy-1-methyl-ethylsulfanyl)-benzoic acid (S)-2-[1-(4-tert-butyl-benzyl)-1H-1,2,3-triazol-4-yl]-1-methyl-ethyl ester], for which the EC50 at Gal-4 hPPARβ/δ is over 1000 nM; at Gal-4 hPPARγ it was over 1000 nM; on Gal-4 hPPARα it was 1 to 50 nM. In data set [1] (comparison of half life with and without NADPH: Esterase, CYP or Mixed), the “HLMs Predominant Enzyme” value is recorded as “Mixed”. The half-life in data set [1] (pH 7.4, pooled human liver microsomes, with NADPH (CYP system active), 37° C., read-out: HLMs t1/2) was 29 min.
As for `CCCn1c(COC(=O)c2ccc(OC(C)(C)C(=O)O)c(C)c2)nn(Cc2ccc(C(C)(C)C)cc2)c1=O` [Compound 266, 4-(1-Carboxy-1-methyl-ethoxy)-3-methyl-benzoic acid 1-(4-tert-butyl-benzyl)-5-oxo-4-propyl-4,5-dihydro-1H-1,2,4-triazol-3-ylmethyl ester], the EC50 was over 1000 nM on Gal-4 hPPARβ/δ, over 1000 nM at Gal-4 hPPARγ and 201 to 999 nM at Gal-4 hPPARα.
`CSc1ccc(Cn2cc(COC(=O)c3ccc(SC(C)(C)C(=O)O)cc3)cn2)cc1` [Compound 20, 2-methyl-2-(4-(((1-(4-(methylthio)benzyl)-1H-pyrazol-4-yl)methoxy)carbonyl)phenylthio)propanoic acid]: the EC50 at Gal-4 hPPARβ/δ was over 1000 nM; at Gal-4 hPPARγ, over 1000 nM; at Gal-4 hPPARα, 1 to 50 nM.
With `CC(C)(Sc1ccc(C(=O)OCc2cnn(Cc3ccc4c(c3)C(C)(C)CCC4(C)C)c2)cc1)C(=O)O` [Compound 29, 2-methyl-2-(4-(((1-((5,5,8,8-tetramethyl-5,6,7,8-tetrahydronaphthalen-2-yl)methyl)-1H-pyrazol-4-yl)methoxy)carbonyl)phenylthio)propanoic acid], the EC50 at Gal-4 hPPARβ/δ is over 1000 nM; on Gal-4 hPPARγ, over 1000 nM; on Gal-4 hPPARα, 1 to 50 nM.
